Structures are written as SMILES. Several values for one entry are separate records, joined by “and”; a condition that tells them apart may be missing. Equal entries are not always repeated. Non-standard residues stand in square brackets, D forms with d. Residues, ends and D or L forms follow the SMILES beside them. ξ: configuration not given here. Ile(3ξ) = CCC(C)[C@H](N)C(=O)O

The target in this test is T1, Pituitary adenylate cyclase-activating polypeptide (Rattus norvegicus, UniProt P13589).
T1 sequence (P13589 whole entry): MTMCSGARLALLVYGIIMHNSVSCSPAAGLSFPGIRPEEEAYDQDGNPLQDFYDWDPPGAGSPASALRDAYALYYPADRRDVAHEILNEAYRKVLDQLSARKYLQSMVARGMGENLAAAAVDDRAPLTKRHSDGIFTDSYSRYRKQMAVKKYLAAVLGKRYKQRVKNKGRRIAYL
As to `CCC(C)[C@H](NC(=O)CNC(=O)[C@@H](N)CC(=O)O)C(=O)N[C@@H](Cc1ccccc1)C(=O)N[C@H](C(=O)N[C@@H](CC(=O)O)C(=O)N[C@@H](CO)C(=O)N[C@@H](Cc1ccc(O)cc1)C(=O)N[C@@H](CO)C(=O)N[C@@H](CCCN=C(N)N)C(=O)N[C@@H](Cc1ccc(O)cc1)C(=O)N[C@@H](CCCN=C(N)N)C(=O)N[C@@H](CCCCN)C(=O)N[C@@H](CCC(N)=O)C(=O)N[C@@H](CCSC)C(=O)N[C@@H](C)C(=O)N[C@H](C(=O)N[C@@H](CCCCN)C(=O)N[C@@H](CCCCN)C(=O)N[C@@H](Cc1ccc(O)cc1)C(=O)N[C@@H](CC(C)C)C(=O)N[C@@H](C)C(=O)N[C@@H](C)C(=O)N[C@H](C(=O)N[C@@H](CC(C)C)C(N)=O)C(C)C)C(C)C)[C@@H](C)O` (stereo partly drawn) [PACAP(3-27)] (H-DG[Ile(3ξ)]FTDSYSRYRKQMAVKKYLAAVL-NH2), the inhibition constant (Ki) is 500 nM and 400 nM. With `CC[C@H](C)[C@H](NC(=O)CNC(=O)[C@H](CCC(=O)O)NC(=O)[C@H](CO)NC(=O)[C@@H](N)Cc1cnc[nH]1)C(=O)N[C@@H](Cc1ccccc1)C(=O)N[C@H](C(=O)N[C@@H](CC(=O)O)C(=O)N[C@@H](CO)C(=O)N[C@@H](Cc1ccc(O)cc1)C(=O)N[C@@H](CO)C(=O)N[C@@H](CCCNC(=N)N)C(=O)N[C@@H](Cc1ccc(O)cc1)C(=O)N[C@@H](CCCNC(=N)N)C(=O)N[C@@H](CCCCN)C(=O)N[C@@H](CCC(N)=O)C(=O)N[C@@H](CCSC)C(=O)N[C@@H](C)C(=O)N[C@H](C(=O)N[C@@H](CCCCN)C(=O)N[C@@H](CCCCN)C(=O)N[C@@H](Cc1ccc(O)cc1)C(=O)N[C@@H](CC(C)C)C(=O)N[C@@H](C)C(=O)N[C@@H](C)C(=O)N[C@H](C(=O)N[C@@H](CC(C)C)C(N)=O)C(C)C)C(C)C)[C@@H](C)O` [PACAP(1-27)], the Ki came to 0.08 nM. This counts as picomolar. `[C][C][C]([C])[C@H]([N]C(=O)[C][N]C(=O)[C@H]([C][C]C([O])=O)[N]C(=O)[C@@H]([N])[C][O])C(=O)[N][C@@H]([C]c1ccccc1)C(=O)[N][C@H](C(=O)[N][C@@H]([C]C([O])=O)C(=O)[N][C@@H]([C][O])C(=O)[N][C@@H]([C]c1ccc([O])cc1)C(=O)[N][C@@H]([C][O])C(=O)[N][C@@H]([C][C][C]N=C([N])[N])C(=O)[N][C@@H]([C]c1ccc([O])cc1)C(=O)[N][C@@H]([C][C][C]N=C([N])[N])C(=O)[N][C@@H]([C][C][C][C][N])C(=O)[N][C@@H]([C][C]C([N])=O)C(=O)[N][C@@H]([C][C]S[C])C(=O)[N][C@@H]([C])C(=O)[N][C@@H]([C]([C])[C])C(=O)[N][C@@H]([C][C][C][C][N])C(=O)[N][C@@H]([C][C][C][C][N])C(=O)[N][C@@H]([C]c1ccc([O])cc1)C(=O)[N][C@@H]([C][C]([C])[C])C(=O)[N][C@@H]([C])C(=O)[N][C@@H]([C])C(=O)[N][C@@H]([C]([C])[C])C(=O)[N][C@@H]([C][C]([C])[C])C([N])=O)[C@@H]([C])[O]` [PACAP(2-27)] had a Ki of 5 nM. Regarding `CCC(C)[C@H](NC(=O)CNC(=O)[C@@H](N)CC(=O)O)C(=O)N[C@@H](Cc1ccccc1)C(=O)N[C@H](C(=O)N[C@@H](CC(=O)O)C(=O)N[C@@H](CO)C(=O)N[C@@H](Cc1ccc(O)cc1)C(=O)N[C@@H](CO)C(=O)N[C@@H](CCCN=C(N)N)C(=O)N[C@@H](Cc1ccc(O)cc1)C(=O)N[C@@H](CCCN=C(N)N)C(=O)N[C@@H](CCCCN)C(=O)N[C@@H](CCC(N)=O)C(=O)N[C@@H](CCSC)C(=O)N[C@@H](C)C(=O)N[C@H](C(=O)N[C@@H](CCCCN)C(=O)N[C@@H](CCCCN)C(=O)N[C@@H](Cc1ccc(O)cc1)C(=O)N[C@@H](CC(C)C)C(=O)N[C@@H](C)C(=O)N[C@@H](C)C(=O)N[C@H](C(=O)N[C@@H](CC(C)C)C(=O)NCC(=O)N[C@@H](CCCCN)C(=O)N[C@@H](CCCN=C(N)N)C(=O)N[C@@H](Cc1ccc(O)cc1)C(=O)N[C@@H](CCCCN)C(=O)N[C@@H](CCC(N)=O)C(=O)N[C@@H](CCCN=C(N)N)C(=O)N[C@H](C(=O)N[C@@H](CCCCN)C(=O)N[C@@H](CC(N)=O)C(=O)N[C@@H](CCCCN)C(N)=O)C(C)C)C(C)C)C(C)C)[C@@H](C)O` (stereo partly drawn) [PACAP(3-38)] (H-DG[Ile(3ξ)]FTDSYSRYRKQMAVKKYLAAVLGKRYKQRVKNK-NH2), the Ki stood at 300 nM. `CC[C@H](C)[C@H](NC(=O)CNC(=O)[C@H](CC(=O)O)NC(=O)[C@H](CO)NC(=O)[C@@H](N)Cc1cnc[nH]1)C(=O)N[C@@H](Cc1ccccc1)C(=O)N[C@H](C(=O)N[C@@H](CC(=O)O)C(=O)N[C@@H](CO)C(=O)N[C@@H](Cc1ccc(O)cc1)C(=O)N[C@@H](CO)C(=O)N[C@@H](CCCNC(=N)N)C(=O)N[C@@H](Cc1ccc(O)cc1)C(=O)N[C@@H](CCCNC(=N)N)C(=O)N[C@@H](CCCCN)C(=O)N[C@@H](CCC(N)=O)C(=O)N[C@@H](CCSC)C(=O)N[C@@H](C)C(=O)N[C@H](C(=O)N[C@@H](CCCCN)C(=O)N[C@@H](CCCCN)C(=O)N[C@@H](Cc1ccc(O)cc1)C(=O)N[C@@H](CC(C)C)C(=O)N[C@@H](C)C(=O)N[C@@H](C)C(=O)N[C@H](C(=O)N[C@@H](CC(C)C)C(=O)NCC(=O)N[C@@H](CCCCN)C(=O)N[C@@H](CCCNC(=N)N)C(=O)N[C@@H](Cc1ccc(O)cc1)C(=O)N[C@@H](CCCCN)C(=O)N[C@@H](CCC(N)=O)C(=O)N[C@@H](CCCNC(=N)N)C(=O)N[C@H](C(=O)N[C@@H](CCCCN)C(=O)N[C@@H](CC(N)=O)C(=O)N[C@@H](CCCCN)C(N)=O)C(C)C)C(C)C)C(C)C)[C@@H](C)O` [PACAP]: the affinity corresponds to a Ki of 0.1 nM. Against the preceding compound, the Ki is about 3000-fold lower. Next, `CSCC[C@H](NC(=O)[C@H](CCC(N)=O)NC(=O)[C@H](CCCCN)NC(=O)[C@H](CCCNC(=N)N)NC(=O)[C@H](Cc1ccc(O)cc1)NC(=O)[C@H](CCCNC(=N)N)NC(=O)[C@H](CO)NC(=O)[C@H](Cc1ccc(O)cc1)NC(=O)[C@H](CO)NC(=O)[C@H](CC(=O)O)NC(=O)[C@@H](NC(=O)[C@@H](N)Cc1ccccc1)[C@@H](C)O)C(=O)N[C@@H](C)C(=O)N[C@H](C(=O)N[C@@H](CCCCN)C(=O)N[C@@H](CCCCN)C(=O)N[C@@H](Cc1ccc(O)cc1)C(=O)N[C@@H](CC(C)C)C(=O)N[C@@H](C)C(=O)N[C@@H](C)C(=O)N[C@H](C(=O)N[C@@H](CC(C)C)C(=O)NCC(=O)N[C@@H](CCCCN)C(=O)N[C@@H](CCCNC(=N)N)C(=O)N[C@@H](Cc1ccc(O)cc1)C(=O)N[C@@H](CCCCN)C(=O)N[C@@H](CCC(N)=O)C(=O)N[C@@H](CCCNC(=N)N)C(=O)N[C@H](C(=O)N[C@@H](CCCCN)C(=O)N[C@@H](CC(N)=O)C(=O)N[C@@H](CCCCN)C(N)=O)C(C)C)C(C)C)C(C)C`: 8 nM and 10 nM; `CC[C@H](C)[C@H](NC(=O)[C@H](CO)NC(=O)[C@H](CC(N)=O)NC(=O)[C@H](CC(C)C)NC(=O)[C@H](Cc1ccc(O)cc1)NC(=O)[C@H](CCCCN)NC(=O)[C@H](CCCCN)NC(=O)[C@@H](NC(=O)[C@H](C)NC(=O)[C@H](CCSC)NC(=O)[C@H](CCC(N)=O)NC(=O)[C@H](CCCCN)NC(=O)[C@H](CCCN=C(N)N)NC(=O)[C@H](CC(C)C)NC(=O)[C@H](CCCN=C(N)N)NC(=O)[C@@H](NC(=O)[C@H](Cc1ccc(O)cc1)NC(=O)[C@H](CC(N)=O)NC(=O)[C@H](CC(=O)O)NC(=O)[C@@H](NC(=O)[C@H](Cc1ccccc1)NC(=O)[C@@H](NC(=O)[C@H](C)NC(=O)[C@H](CC(=O)O)NC(=O)[C@H](CO)NC(=O)[C@@H](N)Cc1cnc[nH]1)C(C)C)[C@@H](C)O)[C@@H](C)O)C(C)C)C(=O)N[C@@H](CC(C)C)C(=O)N[C@@H](CC(N)=O)C(=O)O` [CAS_37221-79-7]: 80 nM; `CCC(C)[C@H](NC(=O)CNC(=O)[C@H](CC(=O)O)NC(=O)[C@@H](N)CO)C(=O)N[C@@H](Cc1ccccc1)C(=O)N[C@H](C(=O)N[C@@H](CC(=O)O)C(=O)N[C@@H](CO)C(=O)N[C@@H](Cc1ccc(O)cc1)C(=O)N[C@@H](CO)C(=O)N[C@@H](CCCN=C(N)N)C(=O)N[C@@H](Cc1ccc(O)cc1)C(=O)N[C@@H](CCCN=C(N)N)C(=O)N[C@@H](CCCCN)C(=O)N[C@@H](CCC(N)=O)C(=O)N[C@@H](CCSC)C(=O)N[C@@H](C)C(=O)N[C@H](C(=O)N[C@@H](CCCCN)C(=O)N[C@@H](CCCCN)C(=O)N[C@@H](Cc1ccc(O)cc1)C(=O)N[C@@H](CC(C)C)C(=O)N[C@@H](C)C(=O)N[C@@H](C)C(=O)N[C@H](C(=O)N[C@@H](CC(C)C)C(=O)NCC(=O)N[C@@H](CCCCN)C(=O)N[C@@H](CCCN=C(N)N)C(=O)N[C@@H](Cc1ccc(O)cc1)C(=O)N[C@@H](CCCCN)C(=O)N[C@@H](CCC(N)=O)C(=O)N[C@@H](CCCN=C(N)N)C(=O)N[C@H](C(=O)N[C@@H](CCCCN)C(=O)N[C@@H](CC(N)=O)C(=O)N[C@@H](CCCCN)C(N)=O)C(C)C)C(C)C)C(C)C)[C@@H](C)O` (stereo partly drawn) [PACAP(2-38)] (H-SDG[Ile(3ξ)]FTDSYSRYRKQMAVKKYLAAVLGKRYKQRVKNK-NH2): 5 nM and 8 nM.
